# Experiments:
# P. berghei ANKA = experiment: Cerebral malaria model (survival of infected mice); assay type: in vivo, C56B1/6 mice; details: FTY720 0.3 mg/kg/day by gavage, administered one day prior to malaria infection; vs control; two independent experiments, Log-Rank Test, p=0.0002; FIG. 1
# Experimental: A well characterized and widely used animal model of CM was used to test the efficacy of compounds. See, e.g., Golenser, supra, at 585. In each experiment, two groups of C56B1/6 mice were infected with 1 million parasites (P. berghei ANKA) i.p. in 500 μl of media. The first group was the control group, and the second was treated daily by gavage with FTY720 (0.3 mg/kg/day).
# After at least two doses of the drug had been administered, tail vein blood was taken from the mice, and flow cytometry analysis was used to assess the levels of B and T cells, using antibodies to CD3, CD4, CD8 and CD19. The animals were monitored daily for body weight and parasitaemia, and twice daily for survival.
# [1] = Topical and transdermal administration: blood cell counts (CBC); assay type: in vivo, F1 hybrid mice; details: topical (200 μL of 1 mg/mL solution) and transdermal patch; measured six hours after administration; FIG. 2
# Experimental: Drug-in-adhesive transdermal patches containing FTY720 were made by dissolving FTY720 in adhesive (Duro-Tak 87-2196, National Starch & Chemical Co.) at a ratio of 1 part compound to 10 parts adhesive (weight:weight). Adhesive containing FTY720 was layered onto a release liner (Scotchpak 1022 PET Film, 3M Corporation) using a Bird applicator with a 50 to 200 micron gap. Organic solvents were removed from the film by baking at 100° C. for 15 minutes. The dried adhesive was then laminated onto a backing membrane (CoTran 9720 polyethylene film, 3M Corporation).
# Topical and transdermal dosage forms of FTY720 were administered to F1 hybrid mice (n=5 mice per group). The blood of the mice was collected at various time points for CBC and PK analysis.
# Topical dosing of FTY720 was achieved using 200 μL of a 1 mg/mL solution composed of 70% ethanol, 29.9% water, and 0.1% DMSO.
# Transdermal dosing was achieved using patches made as described above. Patches were cut from the laminate and applied to bare skin above the front shoulder of the mice. Dosage was controlled by adjusting the thickness of the compound/adhesive applied to the release liner and number or size of patches. Fur was trimmed from the site of application and then shaved to expose bare skin. To improve adhesion, the skin was further prepped by swabbing with 70% ethanol and then allowed to air dry prior to placing the patch.
compound,measurement,setting,value
"CCCCCCCCc1ccc(CCC(N)(CO)CO)cc1 [FTY720, 2-amino-2-[2-(4-octylphenyl)ethyl]propane-1,3-diol]",survival,P. berghei ANKA,significant survival advantage
same,lymphocyte count,[1],affected
same,neutrophil count,[1],affected
same,white blood cell count,[1],affected

# Source: patent US20100112037A1, “S1P RECEPTOR AGONISTS FOR THE TREATMENT OF CEREBRAL MALARIA” (priority 2008, published 2010)
